In US11458213B2, “Prostate-specific membrane antigen targeted high-affinity agents for endoradiotherapy of prostate cancer” (THE JOHNS HOPKINS UNIVERSITY, priority 2016, dated 2022):

Columns and labels:
[1] = system: PSMA+ PC3 PIP cells; assay: Cell binding, uptake and internalization in PSMA+ PC3 PIP cells; assay type: cell-based
[2] = system: PSMA+ PC3 PIP tumor; assay: Treatment study (SPECT imaging and therapeutic effect) in tumor-bearing mice; assay type: in vivo
Protocol: A single dose of 3 mCi was injected via tail-vain injection in mice (n=10) bearing PSMA+ PC3 PIP tumor (size 3-5 mm). Saline was injected to another group of mice (n=10) for control study. Mice were monitored for body weight tumor size measure for two times per week. The control group of mice was euthanized after 4-8 weeks as the size of tumors over were >12 mm.

[3] = system: PSMA+ PC3 PIP tumor; assay: In vivo tissue biodistribution; details: for tissue biodistribution PC-3 Flu: PC-3 Flu tumor; for tissue biodistribution PC-3 PIP: PC-3 PIP tumor
[4] = system: PSMA-negative PC3 flu cells; assay: Cell uptake in PSMA-negative PC3 flu cells; assay type: cell-based; details: 4 h incubation, n = 3
[5] = system: PSMA+ PC3 PIP cells; assay: Clonogenic assay in PSMA+ PC3 PIP cells; assay type: cell-based; details: 10 μCi dose
[6] = system: PSMA-PC3 flu cells; assay: Clonogenic assay in PSMA- PC3 flu cells; assay type: cell-based; details: 10 μCi dose

For `O=C([O-])CN1CCN(CC(=O)[O-])CCN(CC(=O)O)C(Cc2ccc(NC(=S)NCCCCC(=O)N(CCCC[C@H](NC(=O)N[C@@H](CCC(=O)O)C(=O)O)C(=O)O)Cc3ccc(Br)cc3)cc2)CN(CC(=O)[O-])CC1.[177Lu+3]` (stereo partly drawn) [^177Lu-1], the “internalized activity compared to ^177Lu-3” value [1] was ~2 fold, the Cell surface ([1]; 4 h incubation, n = 3) was 27.68 percent incubated dose per one million cells and the “Cell uptake PSMA + PC3 PIP” value ([1]; 4 h incubation, n = 3) was 42.60 percent incubated dose per one million cells. The “Internalization (cell lysate)” value ([1]; 4 h incubation, n = 3) was 15.88 percent incubated dose per one million cells, the “uptake in PSMA+ PC3 cells (in words)” value ([1]; compared to ^177Lu-3) was “higher uptake in PSMA+ PC3 cells compared to ^177Lu-3” and the “remission of PSMA+ PC3 tumor bearing mice” value ([2]; mouse, in vivo) was “about 50%”. For the same molecule, the “body weight during treatment (in words)” value ([2]; single dose of 3 mCi) was “regained after 2 weeks”, the “survival of mice in complete remission” value ([2]; single dose of 3 mCi) was “more than five months” and the “therapeutic efficacy compared to the control group using saline (in words)” value ([2]; single dose of 3 mCi) was “decrease in tumor volume”. For the same molecule, the “mice showing complete eradication of tumors” value ([2]; single dose of 3 mCi via tail vein, n=10) was 50%, the “number of mice with complete remission of the disease” value ([2]; single dose of 3 mCi, n=10) was “Five” and the “tissue biodistribution Bladder” value ([3]; 2 h) was 3.39 ± 2.78 percent injected dose per gram. The “tissue biodistribution Bladder” value ([3]; 24 h) was 0.31 ± 0.13 percent injected dose per gram, the “tissue biodistribution Bladder” value ([3]; 48 h) was 0.12 ± 0.07 percent injected dose per gram and the “tissue biodistribution Bladder” value ([3]; 72 h) was 0.06 ± 0.03 percent injected dose per gram. For the same molecule, the “tissue biodistribution Blood” value ([3]; 2 h) was 0.68 ± 0.25 percent injected dose per gram, the “tissue biodistribution Blood” value ([3]; 24 h) was 0.01 ± 0.01 percent injected dose per gram and the “tissue biodistribution Blood” value ([3]; 48 h) was 0.00 ± 0.01 percent injected dose per gram. For the same molecule, the “tissue biodistribution Blood” value ([3]; 72 h) was 0.00 ± 0.04 percent injected dose per gram, the “tissue biodistribution Fat” value ([3]; 2 h) was 0.35 ± 0.10 percent injected dose per gram and the “tissue biodistribution Fat” value ([3]; 24 h) was 0.08 ± 0.15 percent injected dose per gram. For the same molecule, the “tissue biodistribution Fat” value ([3]; 48 h) was 0.01 ± 0.01 percent injected dose per gram, the “tissue biodistribution Fat” value ([3]; 72 h) was 0.06 ± 0.07 percent injected dose per gram and the “tissue biodistribution Heart” value ([3]; 2 h) was 0.28 ± 0.08 percent injected dose per gram. For the same molecule, the “tissue biodistribution Heart” value ([3]; 24 h) was 0.02 ± 0.05 percent injected dose per gram, the “tissue biodistribution Heart” value ([3]; 48 h) was 0.01 ± 0.00 percent injected dose per gram and the “tissue biodistribution Heart” value ([3]; 72 h) was 0.01 ± 0.00 percent injected dose per gram. For the same molecule, the “tissue biodistribution Kidney” value ([3]; 2 h) was 87.10 ± 25.99 percent injected dose per gram, the “tissue biodistribution Kidney” value ([3]; 24 h) was 1.65 ± 0.30 percent injected dose per gram and the “tissue biodistribution Kidney” value ([3]; 48 h) was 1.02 ± 0.58 percent injected dose per gram. The “tissue biodistribution Kidney” value ([3]; 72 h) was 0.62 ± 0.04 percent injected dose per gram, the “tissue biodistribution Liver” value ([3]; 2 h) was 0.39 ± 0.13 percent injected dose per gram and the “tissue biodistribution Liver” value ([3]; 24 h) was 0.11 ± 0.01 percent injected dose per gram. The “tissue biodistribution Liver” value ([3]; 48 h) was 0.09 ± 0.02 percent injected dose per gram, the “tissue biodistribution Liver” value ([3]; 72 h) was 0.07 ± 0.00 percent injected dose per gram and the “tissue biodistribution Lung” value ([3]; 2 h) was 1.12 ± 0.33 percent injected dose per gram. The “tissue biodistribution Lung” value ([3]; 24 h) was 0.06 ± 0.01 percent injected dose per gram, the “tissue biodistribution Lung” value ([3]; 48 h) was 0.04 ± 0.01 percent injected dose per gram and the “tissue biodistribution Lung” value ([3]; 72 h) was 0.04 ± 0.02 percent injected dose per gram. The “tissue biodistribution Muscle” value ([3]; 2 h) was 0.68 ± 0.98 percent injected dose per gram, the “tissue biodistribution Muscle” value ([3]; 24 h) was 0.01 ± 0.00 percent injected dose per gram and the “tissue biodistribution Muscle” value ([3]; 48 h) was 0.00 ± 0.00 percent injected dose per gram. For the same molecule, the “tissue biodistribution Muscle” value ([3]; 72 h) was 0.02 ± 0.02 percent injected dose per gram, the “tissue biodistribution PC-3 Flu” value ([3]; 2 h) was 0.39 ± 0.03 percent injected dose per gram and the “tissue biodistribution PC-3 Flu” value ([3]; 24 h) was 0.10 ± 0.02 percent injected dose per gram. For the same molecule, the “tissue biodistribution PC-3 Flu” value ([3]; 48 h) was 0.05 ± 0.01 percent injected dose per gram, the “tissue biodistribution PC-3 Flu” value ([3]; 72 h) was 0.06 ± 0.01 percent injected dose per gram and the “tissue biodistribution PC-3 PIP” value ([3]; 2 h) was 55.04 ± 7.23 percent injected dose per gram. For the same molecule, the “tissue biodistribution PC-3 PIP” value ([3]; 24 h) was 40.61 ± 7.00 percent injected dose per gram, the “tissue biodistribution PC-3 PIP” value ([3]; 48 h) was 27.00 ± 7.03 percent injected dose per gram and the “tissue biodistribution PC-3 PIP” value ([3]; 72 h) was 24.90 ± 2.27 percent injected dose per gram. For the same molecule, the “tissue biodistribution Pancreas” value ([3]; 2 h) was 0.28 ± 0.09 percent injected dose per gram, the “tissue biodistribution Pancreas” value ([3]; 24 h) was 0.02 ± 0.00 percent injected dose per gram and the “tissue biodistribution Pancreas” value ([3]; 48 h) was 0.01 ± 0.01 percent injected dose per gram. For the same molecule, the “tissue biodistribution Pancreas” value ([3]; 72 h) was 0.01 ± 0.00 percent injected dose per gram, the “tissue biodistribution Salivary gland (Sal. Gl)” value ([3]; 2 h) was 1.09 ± 0.08 percent injected dose per gram and the “tissue biodistribution Salivary gland (Sal. Gl)” value ([3]; 24 h) was 0.09 ± 0.02 percent injected dose per gram. The “tissue biodistribution Salivary gland (Sal. Gl)” value ([3]; 48 h) was 0.05 ± 0.03 percent injected dose per gram, the “tissue biodistribution Salivary gland (Sal. Gl)” value ([3]; 72 h) was 0.05 ± 0.02 percent injected dose per gram and the “tissue biodistribution Sm. Int.” value ([3]; 2 h) was 0.51 ± 0.32 percent injected dose per gram. The “tissue biodistribution Sm. Int.” value ([3]; 24 h) was 0.03 ± 0.01 percent injected dose per gram, the “tissue biodistribution Sm. Int.” value ([3]; 48 h) was 0.02 ± 0.00 percent injected dose per gram and the “tissue biodistribution Sm. Int.” value ([3]; 72 h) was 0.02 ± 0.01 percent injected dose per gram. For the same molecule, the “tissue biodistribution Spleen” value ([3]; 2 h) was 3.76 ± 0.70 percent injected dose per gram, the “tissue biodistribution Spleen” value ([3]; 24 h) was 0.15 ± 0.05 percent injected dose per gram and the “tissue biodistribution Spleen” value ([3]; 48 h) was 0.08 ± 0.03 percent injected dose per gram. The “tissue biodistribution Spleen” value ([3]; 72 h) was 0.08 ± 0.02 percent injected dose per gram, the “tissue biodistribution Stomach” value ([3]; 2 h) was 0.87 ± 0.63 percent injected dose per gram and the “tissue biodistribution Stomach” value ([3]; 24 h) was 0.04 ± 0.01 percent injected dose per gram. For the same molecule, the “tissue biodistribution Stomach” value ([3]; 48 h) was 0.05 ± 0.04 percent injected dose per gram, the “tissue biodistribution Stomach” value ([3]; 72 h) was 0.04 ± 0.00 percent injected dose per gram and the “uptake in PSMA+ PC3 PIP tumor (in words)” value ([3]; mouse, in vivo) was “higher uptake and retention in PSMA+ PC3 PIP tumor uptake than ^177Lu-2”. For the same molecule, the “Cell uptake PSMA − PC3 flu” value [4] was 0.09 percent incubated dose per one million cells, the cell killing efficacy [5] was “about 100%” and the “toxicity for PSMA-PC3 flu cells (in words)” value [6] was “no significant toxicity”.
